Measured values as given in patent US10231954B2, “Neurodegenerative therapies” (LYTIX BIOPHARMA AS, priority 2014, dated 2019).

Key:
Assay type in all cases: biochemical
Conditions in all cases: 100 micromolar inhibitor concentration; 100 is no change
CHK1 = target: T1, CHK1 (Homo sapiens, UniProt O14757); assay: Kinase profiling CHK1
T1 sequence (O14757 1-476): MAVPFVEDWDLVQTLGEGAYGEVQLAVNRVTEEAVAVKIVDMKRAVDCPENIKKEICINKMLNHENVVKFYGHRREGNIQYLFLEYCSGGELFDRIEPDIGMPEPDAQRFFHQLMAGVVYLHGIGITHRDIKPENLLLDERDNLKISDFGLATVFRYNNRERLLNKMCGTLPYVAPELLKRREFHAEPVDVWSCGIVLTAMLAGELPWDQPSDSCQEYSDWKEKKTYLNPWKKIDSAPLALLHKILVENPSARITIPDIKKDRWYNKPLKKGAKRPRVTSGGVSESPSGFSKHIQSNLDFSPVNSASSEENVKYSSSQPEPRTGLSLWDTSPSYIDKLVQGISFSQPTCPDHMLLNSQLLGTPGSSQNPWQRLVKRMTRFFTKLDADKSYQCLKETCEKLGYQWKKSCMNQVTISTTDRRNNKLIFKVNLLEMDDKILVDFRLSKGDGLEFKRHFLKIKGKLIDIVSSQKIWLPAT
Excerpt: (§1) Any value less that 25 is considered to be highly significant inhibition.

IR = IR (Homo sapiens, UniProt P06213); assay: Kinase profiling IR
Sequence of IR (P06213 28-1382): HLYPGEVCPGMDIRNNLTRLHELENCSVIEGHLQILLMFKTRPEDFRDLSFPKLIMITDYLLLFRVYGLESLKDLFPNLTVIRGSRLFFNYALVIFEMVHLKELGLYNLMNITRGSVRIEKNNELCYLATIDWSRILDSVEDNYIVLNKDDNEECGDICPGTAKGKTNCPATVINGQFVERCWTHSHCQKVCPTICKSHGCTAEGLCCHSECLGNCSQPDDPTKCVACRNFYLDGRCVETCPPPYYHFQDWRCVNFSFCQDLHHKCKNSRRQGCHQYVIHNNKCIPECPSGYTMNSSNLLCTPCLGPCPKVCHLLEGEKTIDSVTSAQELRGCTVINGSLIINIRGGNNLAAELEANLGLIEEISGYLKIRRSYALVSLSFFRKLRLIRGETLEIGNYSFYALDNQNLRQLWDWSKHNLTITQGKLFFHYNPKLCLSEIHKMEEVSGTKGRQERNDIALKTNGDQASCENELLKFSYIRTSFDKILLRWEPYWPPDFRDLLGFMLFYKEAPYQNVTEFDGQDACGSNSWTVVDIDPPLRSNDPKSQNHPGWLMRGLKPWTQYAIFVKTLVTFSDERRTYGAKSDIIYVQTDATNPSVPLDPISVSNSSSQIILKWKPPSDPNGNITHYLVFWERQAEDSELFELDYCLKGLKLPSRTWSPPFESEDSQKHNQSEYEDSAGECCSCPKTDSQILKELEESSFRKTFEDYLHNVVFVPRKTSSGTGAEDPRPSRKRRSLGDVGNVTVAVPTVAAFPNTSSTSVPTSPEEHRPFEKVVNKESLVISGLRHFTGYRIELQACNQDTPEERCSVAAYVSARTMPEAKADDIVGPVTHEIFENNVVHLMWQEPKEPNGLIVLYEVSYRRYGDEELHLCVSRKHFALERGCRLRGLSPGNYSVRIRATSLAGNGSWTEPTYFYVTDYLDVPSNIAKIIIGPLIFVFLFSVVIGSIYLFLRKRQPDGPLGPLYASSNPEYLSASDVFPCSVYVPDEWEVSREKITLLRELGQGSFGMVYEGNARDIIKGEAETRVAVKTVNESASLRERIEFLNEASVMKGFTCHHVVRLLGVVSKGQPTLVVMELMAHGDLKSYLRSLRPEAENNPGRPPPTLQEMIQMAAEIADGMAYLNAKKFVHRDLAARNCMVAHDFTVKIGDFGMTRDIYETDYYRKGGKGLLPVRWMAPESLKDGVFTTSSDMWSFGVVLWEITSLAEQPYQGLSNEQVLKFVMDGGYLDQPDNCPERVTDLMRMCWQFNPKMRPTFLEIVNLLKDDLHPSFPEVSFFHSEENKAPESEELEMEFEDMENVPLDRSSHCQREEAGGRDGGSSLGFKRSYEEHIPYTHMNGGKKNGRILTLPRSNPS
Excerpt: as §1

TAO1 = target: T2, TAO1 (Homo sapiens, UniProt Q7L7X3); assay: Kinase profiling TAO1
T2 sequence (Q7L7X3 1-1001): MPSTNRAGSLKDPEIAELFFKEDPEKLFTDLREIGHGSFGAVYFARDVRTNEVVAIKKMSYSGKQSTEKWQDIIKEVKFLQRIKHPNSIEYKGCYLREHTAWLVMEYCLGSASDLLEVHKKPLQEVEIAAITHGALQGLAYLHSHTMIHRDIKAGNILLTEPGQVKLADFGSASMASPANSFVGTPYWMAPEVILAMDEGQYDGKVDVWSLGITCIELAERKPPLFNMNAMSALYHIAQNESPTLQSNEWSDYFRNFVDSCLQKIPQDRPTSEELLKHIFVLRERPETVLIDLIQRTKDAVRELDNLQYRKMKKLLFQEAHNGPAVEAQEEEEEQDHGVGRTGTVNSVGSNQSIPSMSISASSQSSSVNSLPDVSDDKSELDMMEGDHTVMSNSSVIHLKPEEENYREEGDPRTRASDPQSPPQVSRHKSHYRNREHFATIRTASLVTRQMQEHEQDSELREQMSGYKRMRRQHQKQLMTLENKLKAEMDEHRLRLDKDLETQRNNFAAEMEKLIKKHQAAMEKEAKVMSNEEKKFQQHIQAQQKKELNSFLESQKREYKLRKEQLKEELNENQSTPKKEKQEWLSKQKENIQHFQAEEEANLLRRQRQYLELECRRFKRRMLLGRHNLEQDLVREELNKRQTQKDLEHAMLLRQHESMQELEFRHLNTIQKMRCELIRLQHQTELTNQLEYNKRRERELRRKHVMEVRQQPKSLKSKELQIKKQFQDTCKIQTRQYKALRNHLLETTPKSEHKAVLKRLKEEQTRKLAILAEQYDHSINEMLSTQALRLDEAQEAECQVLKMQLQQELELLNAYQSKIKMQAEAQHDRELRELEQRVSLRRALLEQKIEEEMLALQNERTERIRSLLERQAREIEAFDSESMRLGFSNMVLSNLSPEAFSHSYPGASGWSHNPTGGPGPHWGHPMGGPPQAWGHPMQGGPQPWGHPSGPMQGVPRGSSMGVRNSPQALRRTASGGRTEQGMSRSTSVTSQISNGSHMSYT
Excerpt: as §1

EPH-B1 = target: T3, EPH-B1 (Homo sapiens, UniProt P54762); assay: Kinase profiling EPH-B1
T3 sequence (P54762 18-984): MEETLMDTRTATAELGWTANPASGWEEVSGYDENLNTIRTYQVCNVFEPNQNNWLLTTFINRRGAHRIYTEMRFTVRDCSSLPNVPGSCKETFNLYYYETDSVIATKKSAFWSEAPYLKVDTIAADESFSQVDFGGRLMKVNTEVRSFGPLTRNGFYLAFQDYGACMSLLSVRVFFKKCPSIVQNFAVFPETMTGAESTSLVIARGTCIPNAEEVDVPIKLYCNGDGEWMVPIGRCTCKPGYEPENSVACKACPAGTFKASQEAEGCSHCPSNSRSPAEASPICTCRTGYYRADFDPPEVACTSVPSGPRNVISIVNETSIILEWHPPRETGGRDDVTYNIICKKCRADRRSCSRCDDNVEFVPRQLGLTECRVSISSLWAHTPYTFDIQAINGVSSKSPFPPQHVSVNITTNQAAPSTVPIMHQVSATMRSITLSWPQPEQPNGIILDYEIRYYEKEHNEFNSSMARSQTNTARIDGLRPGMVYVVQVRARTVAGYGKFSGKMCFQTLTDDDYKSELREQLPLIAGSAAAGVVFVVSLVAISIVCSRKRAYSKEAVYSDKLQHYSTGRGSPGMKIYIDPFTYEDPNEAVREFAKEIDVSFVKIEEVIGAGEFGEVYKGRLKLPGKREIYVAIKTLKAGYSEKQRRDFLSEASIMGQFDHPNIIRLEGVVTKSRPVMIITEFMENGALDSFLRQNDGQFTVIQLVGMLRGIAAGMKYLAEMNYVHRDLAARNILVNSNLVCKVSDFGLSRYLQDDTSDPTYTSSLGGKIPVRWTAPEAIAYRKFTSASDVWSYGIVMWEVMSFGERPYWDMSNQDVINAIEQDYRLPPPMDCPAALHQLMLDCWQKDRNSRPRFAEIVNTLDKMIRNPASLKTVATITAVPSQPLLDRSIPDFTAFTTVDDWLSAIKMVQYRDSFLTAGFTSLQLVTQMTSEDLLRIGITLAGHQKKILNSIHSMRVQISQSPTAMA
Excerpt: as §1

TSSK1 = target: T4, TSSK1 (Homo sapiens, UniProt Q9BXA7); assay: Kinase profiling TSSK1
T4 sequence (Q9BXA7 1-367): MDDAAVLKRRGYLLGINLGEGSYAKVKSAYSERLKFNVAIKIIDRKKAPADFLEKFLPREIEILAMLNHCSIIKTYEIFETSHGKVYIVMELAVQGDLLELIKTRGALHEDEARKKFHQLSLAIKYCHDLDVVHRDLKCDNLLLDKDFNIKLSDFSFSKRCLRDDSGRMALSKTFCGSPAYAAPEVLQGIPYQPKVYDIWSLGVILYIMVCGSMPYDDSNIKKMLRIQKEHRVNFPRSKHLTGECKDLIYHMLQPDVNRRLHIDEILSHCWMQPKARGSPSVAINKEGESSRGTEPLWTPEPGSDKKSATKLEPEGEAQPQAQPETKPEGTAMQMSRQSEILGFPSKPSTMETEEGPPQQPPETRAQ
Excerpt: as §1

MAP4K5 = MAP4K5 (Homo sapiens, UniProt Q9Y4K4); assay: Kinase profiling MAP4K5
Sequence of MAP4K5 (Q9Y4K4 whole entry, species assumed): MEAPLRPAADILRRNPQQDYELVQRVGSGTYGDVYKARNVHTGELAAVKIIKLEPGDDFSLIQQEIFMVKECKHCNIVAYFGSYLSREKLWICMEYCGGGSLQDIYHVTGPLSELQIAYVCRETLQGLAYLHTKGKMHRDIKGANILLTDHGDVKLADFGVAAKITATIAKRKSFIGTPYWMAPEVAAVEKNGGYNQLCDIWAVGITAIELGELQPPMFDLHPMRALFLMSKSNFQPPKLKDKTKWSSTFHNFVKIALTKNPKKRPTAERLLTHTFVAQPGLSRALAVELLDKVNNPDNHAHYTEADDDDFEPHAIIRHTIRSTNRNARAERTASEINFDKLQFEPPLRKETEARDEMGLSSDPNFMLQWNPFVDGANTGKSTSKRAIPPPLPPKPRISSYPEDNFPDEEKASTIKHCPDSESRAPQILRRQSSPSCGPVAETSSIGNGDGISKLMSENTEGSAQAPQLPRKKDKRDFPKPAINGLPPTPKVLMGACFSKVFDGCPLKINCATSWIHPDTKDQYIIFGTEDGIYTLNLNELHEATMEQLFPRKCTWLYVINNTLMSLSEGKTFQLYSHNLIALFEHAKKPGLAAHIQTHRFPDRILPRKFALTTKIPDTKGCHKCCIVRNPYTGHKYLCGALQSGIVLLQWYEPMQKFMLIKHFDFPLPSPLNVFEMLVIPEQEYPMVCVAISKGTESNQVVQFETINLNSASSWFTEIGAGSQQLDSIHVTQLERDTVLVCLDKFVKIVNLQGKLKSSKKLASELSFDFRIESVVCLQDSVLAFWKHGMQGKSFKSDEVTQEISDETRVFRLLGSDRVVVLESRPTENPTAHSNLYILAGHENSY
Excerpt: as §1

`O=C(Nc1nc2cc(O)ccc2s1)c1ccncc1` [Compound 03-11] was tested, and the “residual kinase activity, CHK1” value (CHK1) was 78, the “residual kinase activity, IR” value (IR) was 106 and the “residual kinase activity, TAO1” value (TAO1) was 77. For the same compound, the “residual kinase activity, EPH-B1” value (EPH-B1) was 99, the “residual kinase activity, TSSK1” value (TSSK1) was 97 and the “residual kinase activity, MAP4K5” value (MAP4K5) was 92.
